Measured values published in PubChem BioAssay AID190 (DTP/NCI, 2004).
“And” between values parts separate entries of the source, which are not always exact repeats. Equal values may be shown once. Toxic doses and inconclusive results are not listed. How the source made its calls: active means survival T/C of 150% or more; inactive means T/C below 125% in these data.

Tested on: AKR/Lw mice, AKR lymphoma ip, median survival T/C
Assay: NCI In Vivo Anticancer Drug Screen. Data for tumor model Lymphoma AKR (Transplanted) (intraperitoneal) in AKR/Lw mice
Conditions: endpoint: median survival time, higher = longer survival
Procedure: The antitumor activity of compounds was measured in mice bearing transplantable tumors. Survival or tumor size were measured and the results are expressed as the measurement made in the treated group (T) divided by the measurement made in the vehicle treated control group (C). The tumor model used in this assay is Lymphoma AKR (Transplanted) (intraperitoneal) in AKR/Lw mice

[1] = dose: 25.0 mg/kg/injection, schedule: Q04DX003 (ip), vehicle: saline
[2] = dose: 50.0 mg/kg/injection, schedule: Q04DX003 (ip), vehicle: saline
[3] = dose: 100.0 mg/kg/injection, schedule: Q01DX001 (ip), vehicle: saline
[4] = dose: 400.0 mg/kg/injection, schedule: Q01DX001 (ip), vehicle: Klucel (hydroxypropylcellulose) (HPC)
[5] = dose: 200.0 mg/kg/injection, schedule: Q01DX001 (ip), vehicle: saline
[6] = dose: 400.0 mg/kg/injection, schedule: Q01DX001 (ip), vehicle: saline

Measured: T/C

NC(CSC(c1ccccc1)(c1ccccc1)c1ccccc1)C(=O)O (configuration not stated)
inactive: dose: 0.6 mg/kg/injection, schedule: Q01DX009 (ip), vehicle: Klucel (hydroxypropylcellulose) (HPC) 111 % of control | dose: 1.2 mg/kg/injection, schedule: Q01DX009 (ip), vehicle: Klucel (hydroxypropylcellulose) (HPC) 114 % of control and 117 % of control | dose: 2.5 mg/kg/injection, schedule: Q01DX009 (ip), vehicle: Klucel (hydroxypropylcellulose) (HPC) 117 % of control | dose: 5.0 mg/kg/injection, schedule: Q01DX009 (ip), vehicle: Klucel (hydroxypropylcellulose) (HPC) 88 % of control and 120 % of control | dose: 6.0 mg/kg/injection, schedule: Q01DX009 (ip), vehicle: Klucel (hydroxypropylcellulose) (HPC) 94 % of control | dose: 6.2 mg/kg/injection, schedule: Q04DX003 (ip), vehicle: Klucel (hydroxypropylcellulose) (HPC) 108 % of control | dose: 6.25 mg/kg/injection, schedule: Q01DX009 (ip), vehicle: Klucel (hydroxypropylcellulose) (HPC) 94 % of control | dose: 10.0 mg/kg/injection, schedule: Q01DX009 (ip), vehicle: Klucel (hydroxypropylcellulose) (HPC) 102 % of control | dose: 12.0 mg/kg/injection, schedule: Q01DX009 (ip), vehicle: Klucel (hydroxypropylcellulose) (HPC) 88 % of control | dose: 12.5 mg/kg/injection, schedule: Q01DX009 (ip), vehicle: Klucel (hydroxypropylcellulose) (HPC) 94 % of control | dose: 12.5 mg/kg/injection, schedule: Q04DX003 (ip), vehicle: Klucel (hydroxypropylcellulose) (HPC) 91 % of control and 94 % of control and 102 % of control | dose: 20.0 mg/kg/injection, schedule: Q01DX009 (ip), vehicle: Klucel (hydroxypropylcellulose) (HPC) 102 % of control and 108 % of control | dose: 25.0 mg/kg/injection, schedule: Q01DX009 (ip), vehicle: Klucel (hydroxypropylcellulose) (HPC) 91 % of control and 100 % of control | dose: 25.0 mg/kg/injection, schedule: Q01DX009 (ip), vehicle: saline 94 % of control and 97 % of control and 109 % of control | dose: 25.0 mg/kg/injection, schedule: Q04DX003 (ip), vehicle: Klucel (hydroxypropylcellulose) (HPC) 94 % of control and 97 % of control | [1] 102 % of control | dose: 37.5 mg/kg/injection, schedule: Q01DX001 (ip), vehicle: saline 102 % of control and 103 % of control (2×) | dose: 50.0 mg/kg/injection, schedule: Q01DX009 (ip), vehicle: saline 105 % of control | [2] 97 % of control | dose: 75.0 mg/kg/injection, schedule: Q01DX001 (ip), vehicle: saline 95 % of control and 103 % of control and 110 % of control | dose: 100.0 mg/kg/injection, schedule: Q01DX001 (ip), vehicle: Klucel (hydroxypropylcellulose) (HPC) 97 % of control | [3] 100 % of control | dose: 100.0 mg/kg/injection, schedule: Q04DX003 (ip), vehicle: saline 91 % of control | dose: 150.0 mg/kg/injection, schedule: Q01DX001 (ip), vehicle: saline 90 % of control and 105 % of control and 106 % of control | dose: 200.0 mg/kg/injection, schedule: Q01DX001 (ip), vehicle: Klucel (hydroxypropylcellulose) (HPC) 109 % of control | [4] 118 % of control

COc1cc2c(cc1OC)[C@H]1CNC[C@H]1[C@@H](c1ccccc1)C2
inactive: dose: 75.0 mg/kg/injection, schedule: Q04DX003 (ip), vehicle: saline 110 % of control | [3] 105 % of control | dose: 150.0 mg/kg/injection, schedule: Q04DX003 (ip), vehicle: saline 103 % of control | [5] 100 % of control | [6] 97 % of control

O=C(O)O
inactive: [3] 86 % of control | [5] 117 % of control | [6] 95 % of control

COc1cccc2c1C(=O)c1c(O)c3c(c(O)c1C2=O)C[C@@](O)(C(=O)CO)C[C@@H]3OC1CC(N)C(O)C(C)O1 (some centres not stated)
inactive: dose: 0.12 mg/kg/injection, schedule: Q01DX006 (sc), vehicle: saline 110 % of control | dose: 0.25 mg/kg/injection, schedule: Q01DX006 (ip), vehicle: saline 107 % of control | dose: 0.25 mg/kg/injection, schedule: Q01DX006 (sc), vehicle: saline 97 % of control | dose: 0.5 mg/kg/injection, schedule: Q01DX006 (ip), vehicle: saline 115 % of control | dose: 0.5 mg/kg/injection, schedule: Q01DX006 (sc), vehicle: saline 109 % of control (2×) and 110 % of control | dose: 0.5 mg/kg/injection, schedule: Q04DX003 (sc), vehicle: saline 105 % of control | dose: 0.9 mg/kg/injection, schedule: Q04DX003 (sc), vehicle: saline 105 % of control | dose: 1.0 mg/kg/injection, schedule: Q01DX006 (ip), vehicle: saline 115 % of control | dose: 1.0 mg/kg/injection, schedule: Q01DX006 (sc), vehicle: saline 117 % of control | dose: 1.5 mg/kg/injection, schedule: Q01DX006 (sc), vehicle: saline 110 % of control and 114 % of control (2×) | dose: 2.6 mg/kg/injection, schedule: Q04DX003 (sc), vehicle: saline 97 % of control

Nc1nc(=S)c2ncn(C3CC(O)C(CO)O3)c2[nH]1 (configuration not stated)
inactive: dose: 12.5 mg/kg/injection, schedule: Q01DX009 (ip), vehicle: saline 93 % of control | [1] 108 % of control | [2] 102 % of control and 119 % of control | [3] 100 % of control | dose: 100.0 mg/kg/injection, schedule: Q04DX003 (ip), vehicle: other 98 % of control and 123 % of control | [5] 102 % of control | dose: 200.0 mg/kg/injection, schedule: Q01DX009 (ip), vehicle: saline 86 % of control and 105 % of control and 116 % of control | dose: 200.0 mg/kg/injection, schedule: Q04DX003 (ip), vehicle: saline 108 % of control and 112 % of control and 116 % of control | dose: 300.0 mg/kg/injection, schedule: Q04DX003 (ip), vehicle: saline 119 % of control | dose: 400.0 mg/kg/injection, schedule: Q01DX009 (ip), vehicle: saline 103 % of control and 110 % of control | dose: 400.0 mg/kg/injection, schedule: Q04DX003 (ip), vehicle: other 113 % of control | dose: 400.0 mg/kg/injection, schedule: Q04DX003 (ip), vehicle: saline 116 % of control and 122 % of control | dose: 500.0 mg/kg/injection, schedule: Q01DX001 (ip), vehicle: saline 105 % of control and 107 % of control and 121 % of control | dose: 500.0 mg/kg/injection, schedule: Q04DX003 (ip), vehicle: saline 103 % of control | dose: 600.0 mg/kg/injection, schedule: Q01DX001 (ip), vehicle: saline 102 % of control and 111 % of control and 119 % of control | dose: 600.0 mg/kg/injection, schedule: Q04DX003 (ip), vehicle: saline 93 % of control and 100 % of control

COc1ccc(N2C(=O)CC(Sc3ccccc3N)C2=O)cc1 (configuration not stated)
inactive: [4] 87 % of control
